One data set addresses T1, CYP2D6 (Homo sapiens, UniProt P10635).
T1 construct: containing HLM (0.2 mg/mL), phosphate buffer (100 mM, pH 7.4); from tissue; host or cells: liver microsomes (HLM)
The data set is described as follows: CYP liver enzyme inhibition experiment, CYP-2D6. Type of data set: in vitro ADME. The following applies: human liver microsomes, pH 7.4, probe dextromethorphan, test compound 10 μM, HLM, dextromethorphan 5 μM, read-out: CYP-2D6 Inhibitory rate (%). On the procedure: (§1) The five major CYP isozymes and their respective probe substrates were: CYP-1A2 (phenacetin, 30 μM), CYP-2C9 (toluenesulfonylurea, 100 μM), CYP-2C19 40 μM), CYP-2D6 (dextromethorphan, 5 μM) and CYP-3A4 (midazolam, 1 μM). All probes were used close to or below their KMS concentrations. The mixture (200 μL) was incubated in a 37° C. constant temperature water bath, containing HLM (0.2 mg/mL), phosphate buffer (100 mM, pH 7.4), NADPH […], test compound (10 μM) and the respective CYP probe substrate. Before the reaction with NADPH, the mixture was pre-incubated for 10 minutes to undergo inhibitor-enzyme interaction. After a specific period of time (10 minutes for CYP-1A2, 2D6 and 3A4; 30 minutes for CYP-2C9 and 2C19), the reaction was quenched by addition to 100 μL solution of appropriate amount of cold acetonitrile. Reaction system was centrifuged and injected into the LC-MS/MS to quantify the concentration of specific metabolite formed from the substrate and the CYP enzyme. Each test compound was tested at least three times independently. […]
(§2) Before the start of the reaction with NADPH, the above mixture can be pre-incubated for about 10 minutes to allow inhibitor-enzyme interactions. […] The quenched mixture can be centrifuged, and aliquots of the mixture can then be analyzed by LC-MS/MS to quantify the concentrations of specific metabolic products for each CYP isozyme. […]
In general terms: Microsomes from liver hold many membrane-bound enzymes, among them those of drug oxidation.

A further data set addresses T2, CYP2C19 (Homo sapiens, UniProt P33261).
T2 construct: containing HLM (0.2 mg/mL), phosphate buffer (100 mM, pH 7.4); from tissue; host or cells: liver microsomes (HLM)
In words: CYP liver enzyme inhibition experiment, CYP-2C19. The following applies: human liver microsomes, pH 7.4, probe S-mephenytoin, 40 µM, test compound 10 μM, HLM, read-out: CYP-2C19 Inhibitory rate (%). The class given is in vitro ADME. On the procedure: as §1, §2

Data set [1] has as its system primary medulloblastoma of Patched (PTCH)+/−, p53−/− mice. The data set is described as follows: Mouse tumor model (tumor inhibition). Type of data set: in vivo, SCID mice. The following applies: 100 mg/kg/day, 14 days. On the procedure: Tumor cells from the primary medulloblastoma of Patched (PTCH)+/−, p53−/− mice were injected subcutaneously into the right side of SCID mice. About 7 days after implantation, treatments were started when the tumor volume grew to an average of 200 mm^3. Animals were randomly divided into blank group, compound B administration group and compound B1 administration group. The doses of compound B1 and racemic compound B were 100 mg/kg/day. Tumor volume […] and body weight (g) were recorded every other day. After 14 days of administration, mice were sacrificed and the tumors were removed.
Primary medulloblastoma (5×10^6) from Patched(PTCH)+/−, p53−/− mice can be […] injected into the right sides of SCID mice. Seven days after the injection, treatment with drugs can start when the average size of tumors reaches 200 mm^3. Subjects can be randomly assigned to the control group, the compound B-treatment group and the compound B1-treatment group. Compounds B and B1 can be administered at dosages of about 100 mg/kg/day. The tumor volume and the body weights of the subjects can be measured and recorded every other day. On the 14th day after the drug administration, the subjects can be sacrificed and their tumors can be removed.

The next data set addresses T3, CYP1A2 (Homo sapiens, UniProt P05177).
T3 construct: containing HLM (0.2 mg/mL), phosphate buffer (100 mM, pH 7.4); from tissue; host or cells: liver microsomes (HLM)
T3 sequence (P05177 1-516): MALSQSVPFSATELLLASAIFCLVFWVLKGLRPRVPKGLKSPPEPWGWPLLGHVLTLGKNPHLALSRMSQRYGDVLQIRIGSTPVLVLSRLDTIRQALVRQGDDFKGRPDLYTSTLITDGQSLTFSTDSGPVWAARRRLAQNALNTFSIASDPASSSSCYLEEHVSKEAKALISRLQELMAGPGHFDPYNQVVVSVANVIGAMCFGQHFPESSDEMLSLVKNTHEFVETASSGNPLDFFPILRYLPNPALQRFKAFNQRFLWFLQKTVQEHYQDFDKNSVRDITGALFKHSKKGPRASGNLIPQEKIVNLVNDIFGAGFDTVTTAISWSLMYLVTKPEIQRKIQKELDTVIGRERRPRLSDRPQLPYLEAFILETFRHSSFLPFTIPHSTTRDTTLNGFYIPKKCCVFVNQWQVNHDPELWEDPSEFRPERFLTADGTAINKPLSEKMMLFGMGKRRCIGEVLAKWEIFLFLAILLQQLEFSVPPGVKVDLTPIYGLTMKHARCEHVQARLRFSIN
In words: CYP liver enzyme inhibition experiment, CYP-1A2. The settings on record: human liver microsomes, pH 7.4, probe phenacetin, test compound 10 μM, HLM, phenacetin 30 μM, read-out: CYP-1A2 Inhibitory rate (%). The class given is in vitro ADME. On the procedure:
as §1, §2

Entries after “also recorded” stand apart in the source; their conditions may differ.

T2 sequence (P33261 whole entry): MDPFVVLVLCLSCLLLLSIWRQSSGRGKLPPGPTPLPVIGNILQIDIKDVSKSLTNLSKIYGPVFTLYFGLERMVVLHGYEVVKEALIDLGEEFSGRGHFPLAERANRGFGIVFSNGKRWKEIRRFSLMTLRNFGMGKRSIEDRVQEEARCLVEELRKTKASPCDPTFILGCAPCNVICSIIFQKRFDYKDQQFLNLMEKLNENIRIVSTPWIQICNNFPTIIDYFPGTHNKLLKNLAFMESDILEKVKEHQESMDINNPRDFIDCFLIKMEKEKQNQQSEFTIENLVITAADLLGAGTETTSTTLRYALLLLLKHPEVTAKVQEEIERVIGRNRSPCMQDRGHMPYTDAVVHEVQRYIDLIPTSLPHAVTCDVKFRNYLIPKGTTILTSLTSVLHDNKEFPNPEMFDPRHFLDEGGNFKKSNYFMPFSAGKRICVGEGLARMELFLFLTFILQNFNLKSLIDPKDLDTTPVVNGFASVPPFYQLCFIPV
T1 sequence (P10635 whole entry): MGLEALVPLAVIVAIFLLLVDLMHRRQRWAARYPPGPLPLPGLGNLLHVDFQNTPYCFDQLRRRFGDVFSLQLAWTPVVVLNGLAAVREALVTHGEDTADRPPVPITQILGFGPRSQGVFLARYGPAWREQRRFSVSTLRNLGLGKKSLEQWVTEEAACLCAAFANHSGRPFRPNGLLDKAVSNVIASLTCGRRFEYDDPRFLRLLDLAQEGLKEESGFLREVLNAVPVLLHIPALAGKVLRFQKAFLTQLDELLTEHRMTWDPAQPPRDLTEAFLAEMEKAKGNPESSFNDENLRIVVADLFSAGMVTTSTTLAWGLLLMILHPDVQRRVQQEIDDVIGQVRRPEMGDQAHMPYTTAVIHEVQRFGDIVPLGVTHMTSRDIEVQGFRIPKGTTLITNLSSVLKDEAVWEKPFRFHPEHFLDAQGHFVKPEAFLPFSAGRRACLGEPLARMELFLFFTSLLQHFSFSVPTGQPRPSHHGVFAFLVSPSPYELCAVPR

With `Cc1cnc(-c2cc(N3CCc4nc(N5CCC(O)CC5)ncc4C3C)ncc2Cl)c(C)c1` (racemic) [B], the results for the inhibition at 10 min, 10 µM at CYP2D6 and at CYP1A2 were 30 ± 1.7% and 21 ± 1.3%, respectively. In addition, at CYP2C19, the inhibition at 30 min, 10 µM is 44 ± 3.3%. Further, the “effect on tumor volume (in words)” value in data set [1] is on record as “stop the tumor from growing; also recorded: only stopped the growth of tumor; also recorded: may stop the tumors from growing”; in data set [1] (listed as racemic compound), “only stop the tumor growth”.
Turning to `Cc1cnc(-c2cc(N3CCc4nc(N5CCC(O)CC5)ncc4[C@H]3C)ncc2Cl)c(C)c1` [Compound B1, (R)-1-(6-(5′-chloro-3,5-dimethyl-[2,4′-bipyridin]-2′-yl)-5-methyl-5,6,7,8-tetrahydropyrido[4,3-d]pyrimidin-2-yl)piperidin-4-ol], the inhibition at 10 min, 10 µM worked out at 24 ± 3.5% on CYP2D6 and 22 ± 15% at CYP1A2. Further, the inhibition at 30 min, 10 µM on CYP2C19 is 43 ± 2.6%. In addition, the “effect on tumor volume (in words)” value in data set [1] is “reduce the tumor volume to almost disappear; also recorded: may decrease the tumor volume”; in data set [1] (listed as chiral compound) it was “shrink the tumor volume to almost undetectable”.

(Values after patent publication US10919889B2, “Chiral heterocyclic compound with hedgehog pathway antagonist activity, method and use thereof” (SUZHOU KINTOR PHARMACEUTICALS, INC., priority 2016, dated 2021).)
